This note sets out measurements from patent publication US6534283B1, “Method for treatment and prevention of physiological shock” (The Regents of the University of California, priority 1999, dated 2003).

In one experiment the test system is Human neutrophils (PMNs). As to the kind of experiment: Neutrophil activation (pseudopod formation) by pancreatic homogenate prepared with protease inhibitors. Type of experiment: cell-based. Conditions: for ability of the homogenate to stimulate neutrophil activation: pancreas homogenized in the presence of protease inhibitor. As for the experimental part:
The organs were immediately washed in cold 0.25 M sucrose solution, homogenized in Krebs-Henseleit solution (1:3 w/v), and the homogenate was diluted (1:2 v/v Krebs-Henseleit), following the protocol established by Glen and Lefer (Circ. Res., 1971). This homogenate served as the stock solution for all experiments. Aliquots were heated for 2.5 hours at 38° C. with mild stirring and the supernatant collected after centrifugation at 500 g for 10 min. Incubation of tissue homogenates at 38° C. promotes enzymatic activity and enhances production of the cellular activation factors.
Neutrophils were isolated from venous blood collected from healthy human volunteers in heparinized vacutainer tubes and stored at 4° C. Human neutrophils (PMNs) were used in these studies after it was shown in pilot studies that the rat organ extracts stimulated activation of both human and rat neutrophils to a similar degree.
Neutrophil isolation was carried out using gravity sedimentation to remove erythrocytes and centrifugation through a Percoll gradient. Isolated neutrophils were resuspended in PBS to achieve a count of 10^6 neutrophils/ml. 100 μl aliquots of suspended neutrophils were added to 100 μl of activating agent (e.g. tissue homogenate) or PBS as a control, and incubated for 10 minutes at 27° C. After incubation, 100 μl of 3% glutaraldehyde (Fisher Scientific, Fair Lawn, N.J.) was added to fix the cells. 100 μl of crystal violet in phosphate (pH: 7.4) buffer was added to label leukocyte nuclei for identification on wet mount preparations. Freely suspended neutrophils with pseudopodia were identified by their segmented nuclei and by the presence of cytoplasmic granules. One hundred neutrophils were counted per slide. Cells having pseudopod projections greater than about 1 μm were considered positive.
To determine if pancreatic homogenates could induce a “systemic response” in vitro, non-pancreatic tissues were incubated with substimulatory quantities of pancreatic homogenate (100 μl pancreatic homogenate/3 ml organ homogenate). […] As the pancreas produces a number of digestive enzymes, including proteases, a cocktail of trypsin and chymotrypsin was added to non-pancreatic tissue and the neutrophil activation assays were performed.

Experiment [1] has as its system rats. In words: Splanchnic ischemia/reperfusion shock with perfusion of the lumen of the small intestine. Type of experiment: in vivo, rat. How it is done:
(§1) The small intestine of rats was perfused at a constant flow rate (4.0 ml/min) with 45 ml of rat intestinal fluid supplemented with 5 ml of 5% glucose (IF) or 50 ml of saline with 0.1% glucose (SAL) or with ANDG at a final concentration of 0.2 mg/ml. The perfusate was recirculated continuously throughout the entire procedure. After 15 min of intestinal perfusion, the animals were subjected to […]. of splanchnic ischemia, which was confirmed by cyanotic organ discoloration and loss of the pressure pulsation in the mesentery.
Arterial and portal venous blood (0.3 ml each) were sampled before ischemia, after 90 min of ischemia, and 30, 60, and 120 min postreperfusion. The samples were analyzed for leukocyte count and activation based on crystal violet staining. In the preischemic period, the leukocyte counts were the same in all three groups. In the IF And SAL groups, the leukocyte count in arterial blood started to decrease after ischemia and reached its lowest value 120 min after reperfusion. […] Similarly, ANGD was able to inhibit the activation of circulating neutrophils (15.0±1.6%) as compared to both IF (23.3±1.0%, p<0.05) and SAL (25.0±1.6%, p<0.05) at 120 minutes post-perfusion.
Myeloperoxidase activity was used as a marker for assessment of leukocyte infiltration into the small intestine, liver, and lung. Tissue myeloperoxidase levels were determined by a spectrophotometric method. At 120 minutes of reperfusion, myeloperoxidase levels were increased in intestine (36.1±3.9 U/g to 309.3±51.0 U/g), liver (0.4±0.1 U/g to 2.6±0.3 U/g), and lung (29.0±4.4 U/g to 199.2±33.9 U/g). This is an early indicator of leukocyte infiltration and organ failure in shock.
Thickness of the intestinal mucosa was used as an indicator of damage to the intestine. A sample of small intestine was longitudinally dissected, fixed in 10% buffered formalin, and embedded in paraffin. Five-micrometer sections were made and stained with hematoxylin and eosin and examined at 200× magnification. Severity of intestinal injury was estimated by the length between the tip of the villi and the musculus mucosae, a measure of mucosal layer thickness. In each specimen, the measurement was made at 10 randomly selected locations and averaged. Intestinal perfusion of protease inhibitor served to maintain mucosal thickness and to reduce intestinal injury (IF 252.0±34.0 […]).
The level of edematous lung injury was assayed by a pulmonary wet/dry ratio. Lung lobes were harvested, wet weight was determined and samples were dried at 70° C. for 72 hours. The dried tissue was weighed, and the ratio of wet to dried weight was calculated. Edema was much greater in the IF (5.65±0.33) and SAL (4.88±0.39) groups as compared to the ANGD (3.66±0.27) group which was similar to non-shock controls.

Experiment [2] concerns rats. In words: Shock induced by bolus injection of pancreatic homogenate, with or without ANGD infusion. Type of experiment: in vivo, rat. Conditions: one hour i.v. pretreatment 3.3 mg/kg body wt per hour, then pancreatic homogenate bolus.
Procedure: Rats were cannulated via the femoral arteries and veins under general anesthesia (pentobarbital, 50 mg/kg i.m.) and saline, without or with ANGD, was infused to examine the response of the circulation after administration of pancreatic homogenate. The arterial catheter served to record mean arterial pressure (MAP) and heart rate. […] No heparin was injected other than that needed to maintain open catheters (10 U/ml Plasma-Lyte, Travenol Laboratory Inc., Deerfield, Ill.). After a one hour pretreatment, a bolus injection of filtered (0.78 μm vacuum filter, Millipore) stock pancreatic homogenate was administered (2 ml). The extent to which pancreatic homogenate induced hypotension and circulatory shock, both in the presence and absence of ANGD, was examined.
The test system of the next experiment is serine protease. In words: Serine protease activity of intestinal fluid during intestinal perfusion and splanchnic ischemia. Type of experiment: in vivo, rat. Conditions: intestinal perfusion 0.2 mg/ml. How it is done: as §1
The process of shock was monitored by a number of methods in various tissues throughout the body. Intestinal fluid was analyzed for serine protease activity. One milliliter of circulating fluid in the intestine was collected from the reservoir before ischemia and 90 min after ischemia. […] After 90 min of ischemia, the serine protease activity levels in the IF, SAL, and ANGD groups were 5.6±2.3×10^3 units/ml, 3.3±2.3×10^3 units/ml, and 1.2±0.2×10^3 units/ml, respectively. Intestinal perfusion with ANGD kept the serine protease activity lower than in the other two groups (p<0.05, SAL vs. ANGD; p<0.01 ANGD vs. IF and SAL groups).

On to `N=C(N)c1ccc2cc(OC(=O)c3ccc(N=C(N)N)cc3)ccc2c1` [ANGD, 6-amidino-2napthyl p-guanidobenzoate dimethane-sulfate], for which, in the experiment on Human neutrophils (PMNs) (pancreas homogenized in presence of inhibitor, untreated extract 59±10%), the neutrophil activation stood at 9±12%. In the experiment with Human neutrophils (PMNs), the “ability of the homogenate to stimulate neutrophil activation” value (“ability of the homogenate” below) is on record as “significantly decreased”. In addition, in the experiment with rats [1] (120 minutes of reperfusion, without inhibitor 2.6±0.3 U/g), the “myeloperoxidase activity in liver” value was 1.0±0.1 U/g. The “myeloperoxidase activity in lung” value in the experiment on rats [1] (120 minutes of reperfusion, without inhibitor 199.2±33.9 U/g) is on record as 87.0±13.4 U/g. Moreover, the “myeloperoxidase activity in intestine” value in the experiment with rats [1] (120 minutes of reperfusion, without inhibitor 309.3±51.0 U/g) was 62.5±19.8 U/g. The “activation of circulating neutrophils” value in the experiment on rats [1] (120 minutes post-perfusion, IF 23.3±1.0%, SAL 25.0±1.6%) worked out at 15.0±1.6%. The “pulmonary wet/dry ratio (edematous lung injury)” value with rats [1] (IF 5.65±0.33, SAL 4.88±0.39) is recorded as 3.66±0.27. Further, in the experiment on rats [1] (intestinal perfusion 0.2 mg/ml, after ischemia up to 120 min after reperfusion), the “leukopenia (leukocyte count in arterial blood)” value is “completely ameliorated leukopenia”. The mucosal thickness (tip of the villi to musculus mucosae) in the experiment on rats [1] (small intestine, IF 252.0±34.0) amounted to 378 ± 38 µm. The “death within the 60 minute post-injection observation period” value with rats [2] was “none of these animals died”. In addition, in the experiment with rats [2], the “time for MAP and heart rate to return to normal levels” value is at most 20 min. The “serine protease activity level in the intestine” value is listed as 1.2±0.2×10^3 units/ml in the experiment on serine protease (after 90 min of ischemia, IF 5.6±2.3×10^3, SAL 3.3±2.3×10^3) and 1.2±0.1×10^3 units/ml with serine protease (before ischemia, IF=5.8±1.8×10^3, SAL=2.0±0.9×10^3).

For `CCOC(=O)c1ccc(OC(=O)CCCCCN=C(N)N)cc1.CS(=O)(=O)O` [FOY, gabaxalate mesilate], the “ability of the homogenate” value in the experiment with Human neutrophils (PMNs) was “significantly decreased”.

For the molecule `O=S(=O)(F)Cc1ccccc1` [PMSF, phenylmethylsulfonylfluoride], the “ability of the homogenate” value with Human neutrophils (PMNs) is “significantly decreased”.
